Values of other authors, collected in patent US20120245171A1, “BENZPYRAZOLE DERIVATIVES AS INHIBITORS OF PI3 KINASES” (GLAXO GROUP LIMITED, priority 2009, published 2012).
Like-named read-outs stand apart in the source and are kept apart here.

Assays:
Class I PI3-kinases = details: each of the Class I PI3-kinases
neutrophils [1] = details: treatment of neutrophils; Thelen et al. 1994
neutrophils [2] = details: for superoxide release: neutrophils
CK2 protein kinase = CK2 protein kinase (Homo sapiens, UniProt P68400)
Sequence of CK2 protein kinase (P68400 whole entry): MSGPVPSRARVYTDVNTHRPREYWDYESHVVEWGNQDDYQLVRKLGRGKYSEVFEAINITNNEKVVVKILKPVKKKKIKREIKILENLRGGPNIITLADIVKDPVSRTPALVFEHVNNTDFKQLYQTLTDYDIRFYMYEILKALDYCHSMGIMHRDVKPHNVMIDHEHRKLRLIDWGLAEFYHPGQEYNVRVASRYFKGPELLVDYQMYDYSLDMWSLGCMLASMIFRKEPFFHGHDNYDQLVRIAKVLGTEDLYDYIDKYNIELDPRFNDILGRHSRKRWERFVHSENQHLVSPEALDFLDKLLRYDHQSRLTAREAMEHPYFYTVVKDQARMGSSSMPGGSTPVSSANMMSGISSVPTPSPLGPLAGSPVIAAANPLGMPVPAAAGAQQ

Row | Structure (SMILES) | IC50 (Class I PI3-kinases; read-out: IC50 against each of the various Class I PI3-kinases) [µM] | fMLP-induced respiratory burst response (neutrophils [1]) | neutrophil migration (neutrophils [2]) | superoxide release (neutrophils [2]) | IC50 (Class I PI3-kinases; Fruman et al. 1998, read-out: IC50 against each of these PI3-kinases) [µM] | IC50 (CK2 protein kinase) [µM]
1 | COC[C@H]1OC(=O)c2coc3c2[C@@]1(C)C1=C(C3=O)[C@@H]2CCC(=O)[C@@]2(C)C[C@H]1OC(C)=O [wortmannin] | 0.001 to 0.01 | prevents | block | block | – | –
2 | O=c1cc(N2CCOCC2)oc2c(-c3ccccc3)cccc12 [LY294002] | – | – | block | block | 15 to 20 | 5 to 10
